From patent US11447471B2, “α,β-unsaturated amide compound” (KYOWA KIRIN CO., LTD., priority 2017, dated 2022)

Tests used:
Type in all cases: cell-based
OVTOKO cells = assay: Cell growth inhibitory effect on human ovarian cancer cell line (cell counting kit 8, 6 days); conditions: 144 h, 6 days incubation
Source text: (§1) NCI-H226 cells, a human mesothelioma cell line (ATCC, CRL-5826), NCI-H322 cells, a human lung cancer cell line (the European Collection of Authenticated Cell Cultures, 95111734), OUTOKO cells, a human ovarian cancer cell line (JCRB cell bank, KRB1048) and […] were each subcultured by keeping the cell density under 80% in a RPMI1640 culture medium with 10% fetal bovine serum (FBS). NCI-H226 cells, NCI-H322 cells and SSP-25 cells were each suspended in the RPMI1640 culture medium mentioned above, and plated to a 96-well flat-bottom plate at 500 cells/well in each well, and incubated at 37° C. in an incubator with 5% CO2 for one day. After the incubation, the evaluation of cell growth inhibitory activity was started. OVTOKO cells were suspended in the RPMI1640 culture medium mentioned above, and plated to a 96-well flat-bottom plate at 250 cells/well in each well, and incubated it at 37° C. in an incubator with 5% CO2 for one day. After the incubation, the evaluation of the cell growth inhibitory activity was started. The next day, a test compound was serially diluted to 5 times of its final concentration in the RPM11640 culture medium mentioned above, and the diluted solution was added to each well. In this case, the final concentration of DMSO in each well was adjusted to 0.1%. After the test compound was added, cells were incubated at 37° C. in an incubator with 5% CO2 for 6 days. At the addition of the test compound and 6 days after the addition, the cell counting measurement was performed using a cell counting kit 8 (made by DOJINDO) according to a protocol equivalent to DOJINDO's recommendation. A reagent contained in the kit was added to each plate and color reaction was performed for 2 or 3 hours at 37° C. in an incubator with 5% CO2. After the reaction, an absorbance at wavelength of 450 nm was measured using a microplate reader. A growth inhibition rate was calculated according to the following formula, from which the concentration of a test compound at which cell growth was inhibited by 50% (GI50 value) was determined.

NCI-H226 cells = assay: Cell growth inhibitory effect on human mesothelioma cell line (cell counting kit 8, 6 days); conditions: NCI-H226, 144 h
Source text: as §1

NCI-H322 cells = assay: Cell growth inhibitory effect on human lung cancer cell line (cell counting kit 8, 6 days); conditions: 144 h; human lung cancer cell line NCI-H322, 6 days incubation
Source text: as §1

HuH28 cells = assay: Cell growth inhibitory effect on human liver cancer cell line (cell counting kit 8, 6 days); conditions: 144 h; human liver cancer cell line HuH28, 6 days incubation
Source text: as §1

SMILES	GI50 (OVTOKO cells)	GI50 (NCI-H226 cells)	GI50 (NCI-H322 cells)	GI50 (HuH28 cells)
[H]/C=C/C(=O)NC1CCOc2c1ccc(Oc1ccc(C(F)(F)F)cc1)c2F (racemic) [Compound 31, N-[8-Fluoro-7-{4-(trifluoromethyl)phenoxy}chroman-4-yl]acrylamide]	≤ 3000 nM	< 100 nM	–	–
[H]/C=C/C(=O)NC1CCOc2c1ccc(Oc1ccc(C(F)(F)F)cc1)c2OC (racemic) [Compound 33, N-[8-Methoxy-7-{4-(trifluoromethyl)phenoxy}chroman-4-yl]acrylamide]	≤ 3000 nM	< 100 nM	–	–
C=CC(=O)N[C@@H]1CC[C@H](Oc2ccc(Cl)c(Cl)c2)c2nc(Cl)ccc21 (relative stereo) [Compound 178, cis-N-{2-Chloro-8-(3,4-dichlorophenoxy)-5,6,7,8-tetrahydroquinolin-5-yl}acrylamide]	–	< 100 nM	–	–
C=CC(=O)N[C@@H]1CC[C@H](Oc2cnc(Cl)c(Cl)c2)c2nc(Cl)ccc21 (relative stereo) [Compound 181, cis-N-[2-Chloro-8-{(5,6-dichloropyridin-3-yl)oxy}-5,6,7,8-tetrahydroquinolin-5-yl]acrylamide]	–	100 to 1000 nM	–	–
C=CC(=O)N[C@@H]1CC[C@H](Oc2ccc(C(F)(F)F)cc2)c2nc(C)ccc21 (relative stereo) [Compound 184, cis-N-[2-Methyl-8-{4-(trifluoromethyl)phenoxy}-5,6,7,8-tetrahydroquinolin-5-yl]acrylamide]	≤ 3000 nM	< 100 nM	< 1000 nM	–
C=CC(=O)N[C@@H]1CC[C@H](Oc2ccc(C(F)(F)F)cc2)c2nc(CC)ccc21 (relative stereo) [Compound 186, cis-N-[2-ethyl-8-{4-(trifluoromethyl)phenoxy}-5,6,7,8-tetrahydroquinolin-5-yl]acrylamide]	–	100 to 1000 nM	–	–
C=CC(=O)NC1CC[C@H](Oc2ccc(Cl)cc2)c2nc(Cl)ccc21 (stereo in doubt) [Compound 70, cis-N-{2-Chloro-8-(4-chlorophenoxy)-5,6,7,8-tetrahydroquinolin-5-yl}acrylamide]	≤ 3000 nM	< 100 nM	< 1000 nM	–
C=CC(=O)NC1CC[C@H](Oc2ccc(Cl)cc2)c2nc(OC)ccc21 (stereo in doubt) [Compound 71, cis-N-{8-(4-Chlorophenoxy)-2-methoxy-5,6,7,8-tetrahydroquinolin-5-yl}acrylamide]	≤ 3000 nM	< 100 nM	< 1000 nM	–
C=CC(=O)NC1CC[C@H](Oc2ccc(C(F)(F)F)cc2)c2nc(Cl)ccc21 (stereo in doubt) [Compound 76, cis-N-[2-Chloro-8-{4-(trifluoromethyl)phenoxy}-5,6,7,8-tetrahydroquinolin-5-yl]acrylamide]	≤ 3000 nM	< 100 nM	< 1000 nM	–
C=CC(=O)NC1CC[C@@H](Oc2ccc(Cl)cc2)c2nc(OC)ccc21 (stereo in doubt) [Compound 81, trans-N-{8-(4-Chlorophenoxy)-2-methoxy-5,6,7,8-tetrahydroquinolin-5-yl}acrylamide]	–	100 to 1000 nM	–	–
C=CC(=O)NC1CC[C@@H](Oc2ccc(C(F)(F)F)cc2)c2nc(Cl)ccc21 (stereo in doubt) [Compound 82, trans-N-[2-Chloro-8-{4-(trifluoromethyl)phenoxy}-5,6,7,8-tetrahydroquinolin-5-yl]acrylamide]	≤ 3000 nM	< 100 nM	< 1000 nM	–
C=CC(=O)N[C@@H]1CC[C@H](Oc2ccc(C(F)(F)F)cc2)c2cnccc21 (stereo in doubt) [Compound 228, N-[8-{4-(Trifluoromethyl)phenoxy}-5,6,7,8-tetrahydroisoquinolin-5-yl]acrylamide]	–	–	< 1000 nM	–
C=CC(=O)Nc1cncc(Oc2ccc(OC(C)C)nc2)c1 [Compound 110, N-[5-{(6-Isopropoxypyridin-3-yl)oxy}pyridin-3-yl]acrylamide]	–	100 to 1000 nM	–	–
O=C(/C=C/C(F)(F)F)NCc1ccc(Oc2ccc(Cl)cc2)c2ncccc12 [Compound 135, (E)-N-[{8-(4-Chlorophenoxy)quinolin-5-yl}methyl]-4,4,4-trifluoro-2-butenamide]	–	100 to 1000 nM	–	–
C=CC(=O)NCc1ccc(Oc2cnc(C(F)(F)F)nc2)c2ncccc12 [Compound 196, N-{(8-[{2-(Trifluoromethyl)pyrimidin-5-yl}oxy]quinolin-5-yl)methyl}acrylamide]	–	100 to 1000 nM	–	–
C=CC(=O)NCc1cc(Oc2ccc(C(F)(F)F)cc2)c2ncccc2c1 [Compound 214]	–	< 100 nM	< 1000 nM	–

SMILES	GI50 (OVTOKO cells)	GI50 (NCI-H226 cells)	GI50 (NCI-H322 cells)	GI50 (HuH28 cells)
C=CC(=O)NCc1ccc(Oc2ccc(C(F)(F)F)cc2)c2nc(C(C)C)oc12 [Compound 245, N-([2-Isopropyl-4-{4-(trifluoromethyl)phenoxy}benzo[d]oxazol-7-yl]methyl)acrylamide]	–	< 100 nM	< 1000 nM	< 3000 nM
C=CC(=O)NCc1ccc(Oc2ccc(C(F)(F)F)cc2)c2nc(C(F)(F)F)oc12 [Compound 248, N-([2-(Trifluoromethyl)-4-{4-(trifluoromethyl)phenoxy}benzo[d]oxazol-7-yl]methyl)acrylamide]	–	100 to 1000 nM	< 1000 nM	–
C=CC(=O)NCc1nc2c(Oc3ccc(C(F)(F)F)cc3)cccc2o1 [Compound 254, N-([4-{4-(Trifluoromethyl)phenoxy}benzo[d]oxazol-2-yl]methyl)acrylamide]	–	100 to 1000 nM	–	–
C=CC(=O)NCc1nc2cc(Oc3ccc(C(F)(F)F)cc3)ccc2o1 [Compound 255, N-([5-{4-(Trifluoromethyl)phenoxy}benzo[d]oxazol-2-yl]methyl)acrylamide]	–	100 to 1000 nM	–	–
C=CC(=O)NC1CCOc2nc(Oc3ccc(C(F)(F)F)cc3)ccc21 (centres unmarked) [Compound 259, N-[7-{4-(Trifluoromethyl)phenoxy}-3,4-dihydro-2H-pyrano[2,3-b]pyridin-4-yl]acrylamide]	–	100 to 1000 nM	< 1000 nM	–
C=CC(=O)NC1CCCOc2cc(Oc3ccc(C(F)(F)F)cc3)ccc21 (centres unmarked) [Compound 261, N-[8-{4-(Trifluoromethyl)phenoxy}-2,3,4,5-tetrahydrobenzo[b]oxepin-5-yl]acrylamide]	–	100 to 1000 nM	–	–
C=CC(=O)NC1COc2ccc(Oc3ccc(C(F)(F)F)cc3)cc21 (centres unmarked) [Compound 262, N-[5-{4-(Trifluoromethyl)phenoxy}-2,3-dihydrobenzofuran-3-yl]acrylamide]	–	< 100 nM	< 1000 nM	–
C=CC(=O)NC1COc2c(Br)cc(Oc3ccc(C(F)(F)F)cc3)cc21 (centres unmarked) [Compound 263, N-[7-Bromo-5-{4-(trifluoromethyl)phenoxy}-2,3-dihydrobenzofuran-3-yl]acrylamide]	–	< 100 nM	< 1000 nM	–
C=CC(=O)NC1COc2c(Oc3ccc(C(F)(F)F)cc3)cccc21 (centres unmarked) [Compound 264, N-[7-{4-(Trifluoromethyl)phenoxy}-2,3-dihydrobenzofuran-3-yl]acrylamide]	–	< 100 nM	< 1000 nM	–
C=CC(=O)NC1COc2cc(Oc3ccc(C(F)(F)F)cc3)ccc21 (centres unmarked) [Compound 265, N-{6-[4-(Trifluoromethyl)phenoxy]-2,3-dihydrobenzofuran-3-yl}acrylamide]	–	100 to 1000 nM	< 1000 nM	–
C=CC(=O)NC1COc2cc(C)c(Oc3ccc(C(F)(F)F)cc3)cc21 (centres unmarked) [Compound 266, N-{6-Methyl-5-[4-(trifluoromethyl)phenoxy]-2,3-dihydrobenzofuran-3-yl}acrylamide]	–	100 to 1000 nM	< 1000 nM	–
C=CC(=O)NCc1ccc(CCc2ccc(C(F)(F)F)cc2)c2nc(C)oc12 [Compound 267, N-([2-Methyl-4-{4-(trifluoromethyl)phenethyl}benzo[d]oxazol-7-yl]methyl)acrylamide]	≤ 3000 nM	100 to 1000 nM	–	–
C=CC(=O)NCc1ccc(S(=O)(=O)c2ccc(C(F)(F)F)cc2)c2nc(C)oc12 [Compound 271, N-{(2-Methyl-4-[{4-(trifluoromethyl)phenyl}sulfonyl]benzo[d]oxazol-7-yl)methyl}acrylamide]	≤ 3000 nM	–	–	< 3000 nM
C=CC(=O)NCc1ccc(/C=C/c2ccc(C(F)(F)F)cc2)c2nc(C)oc12 [Compound 273, (E)-N-([2-Methyl-4-{4-(trifluoromethyl)styryl}benzo[d]oxazol-7-yl]methyl)acrylamide]	≤ 3000 nM	100 to 1000 nM	–	< 3000 nM
C=CC(=O)NCc1ccc(OC2CCCCC2)c2nc(C)oc12 [Compound 276, N-[{4-(Cyclohexyloxy)-2-methylbenzo[d]oxazol-7-yl}methyl]acrylamide]	≤ 3000 nM	< 100 nM	–	< 3000 nM
